Data taken from the supplement of paper PMC10331698.
± gives the standard deviation of the averaged measurements.

Columns and labels:
Assay in all cases: level (log10 ratio to DMSO vehicle control); higher = higher biomarker level / cell amount than vehicle control
[1] = compound: C=CC(=O)OCC(F)(F)C(F)(F)C(F)(F)COC(=O)C=C [1H,1H,5H,5H-Perfluoro-1,5-pentanediol diacrylate]; conditions: 6700 nM; in DMSO
Method: (§1)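 BioMAP Diversity Plus panel of 12 human primary cell co-culture systems (3C, 4H, LPS, SAg, BT, BF4T, BE3C, CASM3C, HDF3CGF, KF3CT, MyoF, Mphg). Compounds were added 1 h before stimulation and left for 24 h (MyoF 48 h; BT 72 h for soluble read-outs or 6 d for IgG). Biomarkers were read by ELISA, cytotoxicity by SRB, PBMC viability and proliferation by Alamar Blue. Each well value was divided by the mean of 8 DMSO control wells on the same plate and log10 transformed; duplicate blinded samples were tested at 4 concentrations.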

[2] = compound: COC(=O)C(F)(F)C(F)(F)OC(F)(C(F)(F)F)C(F)(F)OC(F)=C(F)F [Methyl perfluoro(3-(1-ethenyloxypropan-2-yloxy)propanoate)]; conditions: in DMSO
Method: as §1

[3] = compound: FC(F)(F)C(F)(F)C(F)(F)C(F)(F)C(F)(F)C(F)(F)C(F)(F)I [1-Iodopentadecafluoroheptane]; conditions: in DMSO
Method: as §1

Nonafluoropentanamide = compound: NC(=O)C(F)(F)C(F)(F)C(F)(F)C(F)(F)F [Nonafluoropentanamide]; conditions: in DMSO
Method: as §1

[4] = compound: NC(=O)C(F)(F)C(F)(F)C(F)(F)C(F)F; conditions: in DMSO
Method: as §1

[5] = compound: O=C(O)C=CC(F)(C(F)(F)F)C(F)(F)F [3-(Perfluoroisopropyl)-2-propenoic acid]; conditions: in DMSO
Method: as §1

[6] = compound: O=S(=O)(O)CCC(F)(F)C(F)(F)C(F)(F)C(F)(F)C(F)(F)C(F)(F)F [6:2 Fluorotelomer sulfonic acid]; conditions: in DMSO
Method: as §1

Hexafluoroamylene glycol = compound: OCC(F)(F)C(F)(F)C(F)(F)CO [Hexafluoroamylene glycol]; conditions: in DMSO
Method: as §1

## 3C:CD62E/E-Selectin
[1]
  level (log10): -0.135 ± 0.049
[2]; 6700 nM
  level (log10): -0.034 ± 0.011
[2]; 20000 nM
  level (log10): -0.031 ± 0.013
[3]; 6700 nM
  level (log10): -0.0085 ± 0.00071
[3]; 20000 nM
  level (log10): -0.003 ± 0.011
Nonafluoropentanamide; 6700 nM
  level (log10): -0.014 ± 0.025
Nonafluoropentanamide; 20000 nM
  level (log10): -0.017 ± 0.031
Nonafluoropentanamide; 60000 nM
  level (log10): 0.0085 ± 0.011
[4]; 6700 nM
  level (log10): -0.0055 ± 0.022
[4]; 20000 nM
  level (log10): -0.027 ± 0.0014
[4]; 60000 nM
  level (log10): -0.016 ± 0.018
[5]; 6700 nM
  level (log10): -0.009 ± 0.013
[5]; 20000 nM
  level (log10): -0.031 ± 0.0085
[5]; 60000 nM
  level (log10): -0.0155 ± 0.013
[6]; 6700 nM
  level (log10): -0.021 ± 0.034
[6]; 20000 nM
  level (log10): 0.003 ± 0.048
[6]; 60000 nM
  level (log10): 0.026 ± 0.038
Hexafluoroamylene glycol; 6700 nM
  level (log10): -0.0185 ± 0.037
Hexafluoroamylene glycol; 20000 nM
  level (log10): -0.021 ± 0.025
Hexafluoroamylene glycol; 60000 nM
  level (log10): -0.012 ± 0.0014

## 4H:VEGFR2
[1]
  level (log10): -0.0225 ± 0.035
[2]; 6700 nM
  level (log10): -0.008 ± 0.014
[2]; 20000 nM
  level (log10): 0.006 ± 0.034
[3]; 6700 nM
  level (log10): 0.0055 ± 0.0092
[3]; 20000 nM
  level (log10): 0.06 ± 0.024
Nonafluoropentanamide; 6700 nM
  level (log10): -0.0435 ± 0.0078
Nonafluoropentanamide; 20000 nM
  level (log10): -0.0135 ± 0.029
Nonafluoropentanamide; 60000 nM
  level (log10): -0.015
[4]; 6700 nM
  level (log10): 0 ± 0.0042
[4]; 20000 nM
  level (log10): -0.006 ± 0.0099
[4]; 60000 nM
  level (log10): -0.001 ± 0.054
[5]; 6700 nM
  level (log10): -0.0145 ± 0.019
[5]; 20000 nM
  level (log10): 0.004 ± 0.05
[5]; 60000 nM
  level (log10): 0.01 ± 0.045
[6]; 6700 nM
  level (log10): -0.0215 ± 0.012
[6]; 20000 nM
  level (log10): -0.101 ± 0.0064
[6]; 60000 nM
  level (log10): -0.026 ± 0.021
Hexafluoroamylene glycol; 6700 nM
  level (log10): -0.061 ± 0.023
Hexafluoroamylene glycol; 20000 nM
  level (log10): -0.032 ± 0.013
Hexafluoroamylene glycol; 60000 nM
  level (log10): -0.0255 ± 0.0021

## CASM3C:PAI-I
[1]
  level (log10): 0.002 ± 0.0042
[2]; 6700 nM
  level (log10): -0.0015 ± 0.0035
[2]; 20000 nM
  level (log10): -0.0005 ± 0.012
[3]; 6700 nM
  level (log10): -0.013 ± 0.011
[3]; 20000 nM
  level (log10): 0.0075 ± 0.011
Nonafluoropentanamide; 6700 nM
  level (log10): -0.008 ± 0.024
Nonafluoropentanamide; 20000 nM
  level (log10): -0.0065 ± 0.0064
Nonafluoropentanamide; 60000 nM
  level (log10): 0.0105 ± 0.0064
[4]; 6700 nM
  level (log10): -0.005 ± 0.021
[4]; 20000 nM
  level (log10): -0.003 ± 0.0085
[4]; 60000 nM
  level (log10): -0.008 ± 0.0099
[5]; 6700 nM
  level (log10): 0.006 ± 0.0028
[5]; 20000 nM
  level (log10): 0 ± 0.0057
[5]; 60000 nM
  level (log10): 0.012 ± 0.0057
[6]; 6700 nM
  level (log10): -0.001 ± 0.023
[6]; 20000 nM
  level (log10): -0.0025 ± 0.015
[6]; 60000 nM
  level (log10): 0 ± 0.0099
Hexafluoroamylene glycol; 6700 nM
  level (log10): -0.0035 ± 0.015
Hexafluoroamylene glycol; 20000 nM
  level (log10): 0.017 ± 0.031
Hexafluoroamylene glycol; 60000 nM
  level (log10): 0.006 ± 0.0085

## HDF3CGF:PAI-I
[1]
  level (log10): -0.85 ± 0.033
[2]; 6700 nM
  level (log10): 0.107 ± 0.0099
[2]; 20000 nM
  level (log10): 0.0875 ± 0.00071
[3]; 6700 nM
  level (log10): -0.044 ± 0.0071
[3]; 20000 nM
  level (log10): -0.064 ± 0.023
Nonafluoropentanamide; 6700 nM
  level (log10): -0.014 ± 0.078
Nonafluoropentanamide; 20000 nM
  level (log10): 0.0005 ± 0.059
Nonafluoropentanamide; 60000 nM
  level (log10): 0.0125 ± 0.019
[4]; 6700 nM
  level (log10): -0.012 ± 0.011
[4]; 20000 nM
  level (log10): -0.016 ± 0.0099
[4]; 60000 nM
  level (log10): 0 ± 0.038
[5]; 6700 nM
  level (log10): -0.0085 ± 0.018
[5]; 20000 nM
  level (log10): -0.0215 ± 0.015
[5]; 60000 nM
  level (log10): -0.0005 ± 0.032
[6]; 6700 nM
  level (log10): 0.005 ± 0.0042
[6]; 20000 nM
  level (log10): -0.0015 ± 0.0035
[6]; 60000 nM
  level (log10): -0.01 ± 0.011
Hexafluoroamylene glycol; 6700 nM
  level (log10): 0.0045 ± 0.0035
Hexafluoroamylene glycol; 20000 nM
  level (log10): 0.006 ± 0.038
Hexafluoroamylene glycol; 60000 nM
  level (log10): -0.0145 ± 0.0021

## HDF3CGF:Proliferation 72hr
[1]
  level (log10): -0.689 ± 0.0099
[2]; 6700 nM
  level (log10): 0.076 ± 0.018
[2]; 20000 nM
  level (log10): -0.163 ± 0.079
[3]; 6700 nM
  level (log10): -0.0275 ± 0.005
[3]; 20000 nM
  level (log10): -0.135 ± 0.02
Nonafluoropentanamide; 6700 nM
  level (log10): -0.0375 ± 0.005
Nonafluoropentanamide; 20000 nM
  level (log10): -0.0485 ± 0.019
Nonafluoropentanamide; 60000 nM
  level (log10): -0.048 ± 0.028
[4]; 6700 nM
  level (log10): -0.0005 ± 0.046
[4]; 20000 nM
  level (log10): -0.0245 ± 0.06
[4]; 60000 nM
  level (log10): -0.0205 ± 0.037
[5]; 6700 nM
  level (log10): -0.033 ± 0.083
[5]; 20000 nM
  level (log10): 0.0165 ± 0.086
[5]; 60000 nM
  level (log10): 0.04 ± 0.073
[6]; 6700 nM
  level (log10): 0.0015 ± 0.019
[6]; 20000 nM
  level (log10): 0.0725 ± 0.03
[6]; 60000 nM
  level (log10): 0.0405 ± 0.036
Hexafluoroamylene glycol; 6700 nM
  level (log10): -0.0185 ± 0.021
Hexafluoroamylene glycol; 20000 nM
  level (log10): 0.0055 ± 0.025
Hexafluoroamylene glycol; 60000 nM
  level (log10): -0.008 ± 0.037

## lMphg:IL-1alpha
[1]
  level (log10): 0.045 ± 0.024
[2]; 6700 nM
  level (log10): 0.0435 ± 0.035
[2]; 20000 nM
  level (log10): 0.118 ± 0.0021
[3]; 6700 nM
  level (log10): 0.03 ± 0.045
[3]; 20000 nM
  level (log10): 0.014 ± 0.0085
Nonafluoropentanamide; 6700 nM
  level (log10): 0.0035 ± 0.047
Nonafluoropentanamide; 20000 nM
  level (log10): -0.0325 ± 0.047
Nonafluoropentanamide; 60000 nM
  level (log10): -0.017 ± 0.048
[4]; 6700 nM
  level (log10): -0.0425 ± 0.023
[4]; 20000 nM
  level (log10): -0.0465 ± 0.00071
[4]; 60000 nM
  level (log10): 0.0365 ± 0.047
[5]; 6700 nM
  level (log10): -0.0055 ± 0.037
[5]; 20000 nM
  level (log10): 0.0095 ± 0.016
[5]; 60000 nM
  level (log10): -0.0025 ± 0.012
[6]; 6700 nM
  level (log10): 0.0395 ± 0.05
[6]; 20000 nM
  level (log10): 0.0235 ± 0.035
[6]; 60000 nM
  level (log10): 0.0215 ± 0.039
Hexafluoroamylene glycol; 6700 nM
  level (log10): 0.005 ± 0.02
Hexafluoroamylene glycol; 20000 nM
  level (log10): 0.015 ± 0.027
Hexafluoroamylene glycol; 60000 nM
  level (log10): 0.029 ± 0.061

## MyoF:CXCL8/IL-8
[1]
  level (log10): 0.003 ± 0.014
[2]; 6700 nM
  level (log10): 0.083 ± 0.04
[2]; 20000 nM
  level (log10): 0.154 ± 0.034
[3]; 6700 nM
  level (log10): 0.028 ± 0.018
[3]; 20000 nM
  level (log10): 0.034 ± 0.038
Nonafluoropentanamide; 6700 nM
  level (log10): -0.0255 ± 0.00071
Nonafluoropentanamide; 20000 nM
  level (log10): -0.01 ± 0.024
Nonafluoropentanamide; 60000 nM
  level (log10): 0.0125 ± 0.015
[4]; 6700 nM
  level (log10): -0.0285 ± 0.0092
[4]; 20000 nM
  level (log10): -0.0185 ± 0.028
[4]; 60000 nM
  level (log10): 0.018 ± 0.054
[5]; 6700 nM
  level (log10): -0.0445 ± 0.0064
[5]; 20000 nM
  level (log10): -0.032 ± 0.0028
[5]; 60000 nM
  level (log10): -0.0025 ± 0.019
[6]; 6700 nM
  level (log10): 0.007 ± 0.031
[6]; 20000 nM
  level (log10): 0 ± 0.018
[6]; 60000 nM
  level (log10): 0.016 ± 0.021
Hexafluoroamylene glycol; 6700 nM
  level (log10): -0.0385 ± 0.028
Hexafluoroamylene glycol; 20000 nM
  level (log10): -0.0325 ± 0.018
Hexafluoroamylene glycol; 60000 nM
  level (log10): 0.001 ± 0.075
